Source: ChEMBL document CHEMBL1201862, “PubChem BioAssay data set” (2004)
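Following 48 hours of exposure in 96-well plates, responses at five concentrations were used to interpolate endpoints linearly. GI50 is the concentration that inhibits growth by half.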 Activity calls are given as the source filed them. Rule as the data show it: active = GI50 up to about 1.1 µM and inactive = higher.

How the values were obtained:
Test in all cases: NCI anticancer screen, dose series, 48 h
CAKI-1 = system: CAKI-1
COLO 205 = system: COLO 205
LOX IMVI = system: LOX IMVI
MCF7 = system: MCF7
MOLT-4 = system: MOLT-4
Malme-3M = system: Malme-3M
NCI-H23 = system: NCI-H23
NCI/ADR-RES = system: NCI/ADR-RES
SF-295 = system: SF-295
SF-539 = system: SF-539
SK-OV-3 = system: SK-OV-3
SW-620 = system: SW-620
T47D = system: T47D
TK-10 = system: TK-10
U-251 = system: U-251
UACC-62 = system: UACC-62
UO-31 = system: UO-31
EKVX = system: EKVX
HOP-92 = system: HOP-92
OVCAR-4 = system: OVCAR-4

| Structure (SMILES) | GI50 (CAKI-1) | GI50 (COLO 205) | GI50 (LOX IMVI) | GI50 (MCF7) | GI50 (MOLT-4) | GI50 (Malme-3M) | GI50 (NCI-H23) | GI50 (NCI/ADR-RES) | GI50 (SF-295) | GI50 (SF-539) | GI50 (SK-OV-3) | GI50 (SW-620) | GI50 (T47D) | GI50 (TK-10) | GI50 (U-251) | GI50 (UACC-62) | GI50 (UO-31) | GI50 (EKVX) | GI50 (HOP-92) | GI50 (OVCAR-4) |
| --- | --- | --- | --- | --- | --- | --- | --- | --- | --- | --- | --- | --- | --- | --- | --- | --- | --- | --- | --- | --- |
| O=C(O)C12C3CCC(O3)C1(C(=O)O)C1CCC2O1 (stereo not drawn) | > 100 µM (inactive) | > 100 µM (inactive) | > 100 µM (inactive) | > 100 µM (inactive) | > 100 µM (inactive) | > 100 µM (inactive) | > 100 µM (inactive) | > 100 µM (inactive) | > 100 µM (inactive) | > 100 µM (inactive) | > 100 µM (inactive) | > 100 µM (inactive) | > 100 µM (inactive) | > 100 µM (inactive) | > 100 µM (inactive) | > 100 µM (inactive) | > 100 µM (inactive) | – | – | – |
| Cc1ccc2c(c1)S(=O)(=O)c1ccc3ccccc3c1N2 | > 100 µM (inactive) | > 100 µM (inactive) | > 100 µM (inactive) | > 100 µM (inactive) | > 100 µM (inactive) | – | > 100 µM (inactive) | > 100 µM (inactive) | > 100 µM (inactive) | > 100 µM (inactive) | > 100 µM (inactive) | > 100 µM (inactive) | > 100 µM (inactive) | > 100 µM (inactive) | > 100 µM (inactive) | > 100 µM (inactive) | > 100 µM (inactive) | > 100 µM (inactive) | > 100 µM (inactive) | > 100 µM (inactive) |
| CCCCCCCCCCCCOCC(COP(=O)(O)OCCN=[N+]=[N-])OC(=O)CCCCCCCCCCC (stereo not drawn) | > 100 µM (inactive) | > 100 µM (inactive) | – | > 100 µM (inactive) | > 100 µM (inactive) | > 100 µM (inactive) | > 100 µM (inactive) | > 100 µM (inactive) | > 100 µM (inactive) | > 100 µM (inactive) | > 100 µM (inactive) | > 100 µM (inactive) | > 100 µM (inactive) | > 100 µM (inactive) | > 100 µM (inactive) | > 100 µM (inactive) | > 100 µM (inactive) | – | > 100 µM (inactive) | 52.2 µM (inactive) |
| Cc1cc2[nH]c3c(C#N)c(-c4ccccc4)c(/N=N/c4ccc(F)cc4)c(=O)n3c2cc1C | > 100 µM (inactive) | > 100 µM (inactive) | > 100 µM (inactive) | > 100 µM (inactive) | – | – | > 100 µM (inactive) | > 100 µM (inactive) | > 100 µM (inactive) | > 100 µM (inactive) | > 100 µM (inactive) | > 100 µM (inactive) | 4.22 µM (inactive) | > 100 µM (inactive) | 42.5 µM (inactive) | – | > 100 µM (inactive) | > 100 µM (inactive) | – | 91 µM (inactive) |
| CC1=CC2C3(C)C(C)(C(C)=CP3(=O)c3c(C(C)C)cc(C(C)C)cc3C(C)C)C1P2(=O)c1c(C(C)C)cc(C(C)C)cc1C(C)C (stereo not drawn) | 3.01 µM (inactive) | 1.6 µM (inactive) | 1.58 µM (inactive) | 2.26 µM (inactive) | 1.66 µM (inactive) | 2.17 µM (inactive) | 1.6 µM (inactive) | 2.07 µM (inactive) | 2.4 µM (inactive) | – | 2.38 µM (inactive) | 3.08 µM (inactive) | 1.33 µM (inactive) | 2.55 µM (inactive) | 2.45 µM (inactive) | 1.37 µM (inactive) | 1.87 µM (inactive) | 2.92 µM (inactive) | 1.64 µM (inactive) | 3.25 µM (inactive) |
| COC(=O)c1c(O)ccc2c1c1c(n2CCc2ccc(OC)c(OC)c2)C(=O)c2ccccc2C1=O | 17.5 µM (inactive) | 3.57 µM (inactive) | – | 17.9 µM (inactive) | 9.25 µM (inactive) | 14 µM (inactive) | 15.6 µM (inactive) | 10.8 µM (inactive) | 19.6 µM (inactive) | 14.4 µM (inactive) | 19.4 µM (inactive) | – | 12 µM (inactive) | 21.6 µM (inactive) | 18.4 µM (inactive) | 15.2 µM (inactive) | 13.7 µM (inactive) | 20.5 µM (inactive) | 14.6 µM (inactive) | 13.7 µM (inactive) |
| O=C(N/N=C1\CCc2ccccc2C1)N/N=C1\CCc2ccccc2C1 | > 10 µM (inactive) | > 10 µM (inactive) | – | > 10 µM (inactive) | > 10 µM (inactive) | > 10 µM (inactive) | > 10 µM (inactive) | > 10 µM (inactive) | > 10 µM (inactive) | – | – | > 10 µM (inactive) | > 10 µM (inactive) | > 10 µM (inactive) | > 10 µM (inactive) | – | > 10 µM (inactive) | > 10 µM (inactive) | – | > 10 µM (inactive) |
| C=CCC1C(O[Si](C)(C)C(C)(C)C)C(CO[Si](C)(C)C(C)(C)C)OC1n1ccc(=O)[nH]c1=O (stereo not drawn) | 1.63 µM (inactive) | 1.63 µM (inactive) | 0.705 µM (active) | 1.15 µM (inactive) | 0.597 µM (active) | – | 1.29 µM (inactive) | 1.66 µM (inactive) | 1.78 µM (inactive) | 1.6 µM (inactive) | – | 1.16 µM (inactive) | 1.3 µM (inactive) | – | 2.2 µM (inactive) | 1.73 µM (inactive) | 1.36 µM (inactive) | 1.41 µM (inactive) | 1.05 µM (active) | 1.15 µM (inactive) |
| [O-][n+]1nc(N2CCOCC2)nc2ccccc21 | > 100 µM (inactive) | > 100 µM (inactive) | > 100 µM (inactive) | > 100 µM (inactive) | > 100 µM (inactive) | > 100 µM (inactive) | > 100 µM (inactive) | > 100 µM (inactive) | > 100 µM (inactive) | > 100 µM (inactive) | > 100 µM (inactive) | > 100 µM (inactive) | > 100 µM (inactive) | 77.1 µM (inactive) | > 100 µM (inactive) | > 100 µM (inactive) | > 100 µM (inactive) | > 100 µM (inactive) | – | – |
| Cc1nc(Cl)c(CBr)c(Cl)n1 | 2.28 µM (inactive) | 1.66 µM (inactive) | 0.585 µM (active) | 0.769 µM (active) | 0.33 µM (active) | 0.838 µM (active) | 1.62 µM (inactive) | 2.41 µM (inactive) | 8.45 µM (inactive) | 1.97 µM (inactive) | 3.84 µM (inactive) | 0.351 µM (active) | 1.88 µM (inactive) | 2.08 µM (inactive) | 2.04 µM (inactive) | 1.38 µM (inactive) | 1.68 µM (inactive) | 5.87 µM (inactive) | – | 1.83 µM (inactive) |
| O=c1cc(-c2ccccc2)oc2cc(Oc3nnnn3-c3ccccc3)ccc12 | 6.14 µM (inactive) | 35.1 µM (inactive) | 38.9 µM (inactive) | 16.3 µM (inactive) | 32.4 µM (inactive) | 33.4 µM (inactive) | 51.6 µM (inactive) | – | 46.2 µM (inactive) | 22.4 µM (inactive) | 36 µM (inactive) | > 100 µM (inactive) | 11.7 µM (inactive) | 67 µM (inactive) | 19.1 µM (inactive) | > 100 µM (inactive) | 19 µM (inactive) | 35.8 µM (inactive) | 2.37 µM (inactive) | 19.9 µM (inactive) |
| CC1(C)CO[P@@](=S)(c2ccccn2)O[C@@H]1c1ccccc1 | > 100 µM (inactive) | > 100 µM (inactive) | > 100 µM (inactive) | > 100 µM (inactive) | 44.5 µM (inactive) | > 100 µM (inactive) | 89.3 µM (inactive) | 75 µM (inactive) | > 100 µM (inactive) | – | > 100 µM (inactive) | > 100 µM (inactive) | > 100 µM (inactive) | > 100 µM (inactive) | > 100 µM (inactive) | > 100 µM (inactive) | 82.6 µM (inactive) | 96.8 µM (inactive) | > 100 µM (inactive) | 73.6 µM (inactive) |
| COc1ccc(CCNC(=O)c2ccccc2C2c3ccc(OCc4ccccc4)cc3Oc3cc(OCc4ccccc4)ccc32)cc1OC | > 100 µM (inactive) | > 100 µM (inactive) | > 100 µM (inactive) | > 100 µM (inactive) | > 100 µM (inactive) | > 100 µM (inactive) | > 100 µM (inactive) | > 100 µM (inactive) | > 100 µM (inactive) | – | > 100 µM (inactive) | > 100 µM (inactive) | > 100 µM (inactive) | > 100 µM (inactive) | > 100 µM (inactive) | > 100 µM (inactive) | > 100 µM (inactive) | > 100 µM (inactive) | – | > 100 µM (inactive) |
| C/C(N)=C/C(=O)c1[nH]c(C(=O)O)cc1C1CCN(Cc2ccccc2)C1=O (stereo not drawn) | 40.8 µM (inactive) | 23.9 µM (inactive) | – | 24.2 µM (inactive) | 24.4 µM (inactive) | 18.8 µM (inactive) | 22.8 µM (inactive) | 19.9 µM (inactive) | 21.3 µM (inactive) | – | 28.6 µM (inactive) | 46.1 µM (inactive) | 22.8 µM (inactive) | 38.5 µM (inactive) | 39.6 µM (inactive) | 22.3 µM (inactive) | 23.2 µM (inactive) | 30.1 µM (inactive) | 17 µM (inactive) | 47.8 µM (inactive) |
| CN(CCCCCl)P(=O)(OCc1ccc([N+](=O)[O-])o1)OCC1OC(n2ccc(N)nc2=O)C(O)C1O (stereo not drawn) | 55 µM (inactive) | 1.05 µM (active) | 7.24 µM (inactive) | 1.82 µM (inactive) | 0.305 µM (active) | 1.16 µM (inactive) | 5.79 µM (inactive) | 4.47 µM (inactive) | 13.9 µM (inactive) | 10.1 µM (inactive) | 4.17 µM (inactive) | 2.45 µM (inactive) | 1.26 µM (inactive) | 37.7 µM (inactive) | 2.14 µM (inactive) | 12.9 µM (inactive) | 14.2 µM (inactive) | – | – | 1.05 µM (active) |
